# Experimental data reported in patent US20170156324A1 (Dow AgroSciences LLC, priority 2015, published 2017).
# “And” between values parts separate entries of the source, which are not always exact repeats. Equal values may be shown once.
# Columns and labels:
# Format in all cases: in vivo
# [1] = test system: Lolium multiflorum Lam. (Italian ryegrass, LOLMU); assay: Field trial, post-emergence % visual weed control, LOLMU; details: 22.5 g ai/ha
# From the text: (§1) Except for the trials utilizing the OD formulations, Actirob B was applied at 0.5 or 1.0 liters per hectare (L/ha), or Polyglycol 26-2 was applied at 0.5 to 1.0 L/ha in all respective single and tankmixture treatments being evaluated.
# (§2) Trials were established as randomized complete blocks (RCBD) with three to four replicates. Individual treatments were 2-2.5 meters (m) wide and 6-20 m long. An untreated control was included in each trial. All trial sites had naturally occurring populations of weeds.
# (§3) Herbicides were applied with backpack or bicycle sprayers using compressed air, nitrogen (N2) or carbon dioxide (CO2) as a propellant. All sprayers delivered a uniform spray pattern that provided thorough coverage of the foliage using a water volume of 150-300 L/ha. […]
# (§4) The treated plots and control plots were rated blind at various intervals after application. […] The control of the target weeds was visually assessed as percent control, compared to an untreated control plot. […]
# (§5) The efficacy of all treatments was assessed at 13-22 days after application (DAA) for an early season rating, 23-39 DAA for a mid-season rating, and 41-84 DAA for a late-season rating. The data were statistically analyzed using various statistical methods, generally including a Tukey's HSD Factorial Analysis of Variance with a significance level of 5%. […]
# [2] = test system: Centaurea cyanus (cornflower, CENCY); assay: Field trial, post-emergence % visual weed control, CENCY
# From the text: as §1, §2
# (§6) Herbicides were applied with backpack or bicycle sprayers using compressed air, nitrogen (N2) or carbon dioxide (CO2) as a propellant. All sprayers delivered a uniform spray pattern that provided thorough coverage of the foliage using a water volume of 150-300 L/ha. All herbicides were applied post-emergence in the spring to early-summer At the time of herbicide applications, winter wheat crops were at the six-leaf to three-tiller stage. Broadleaf and grass weeds were at a similar stage of growth at the time of herbicide application, typically from five leaf to 3 tiller depending on the weed species and time of year.
# (§7) The treated plots and control plots were rated blind at various intervals after application. […] The control of the target weeds was visually assessed as percent control, compared to an untreated control plot. The assessments were based on a percent visual reduction in pest plant biomass and/or stand reduction of weed population.
# (§8) The efficacy of all treatments was assessed at 13-22 days after application (DAA) for an early season rating, 23-39 DAA for a mid-season rating, and 41-84 DAA for a late-season rating. The data were statistically analyzed using various statistical methods, generally including a Tukey's HSD Factorial Analysis of Variance with a significance level of 5%.
# (§9) Colby's equation was used to determine the herbicidal effects expected from the mixtures (Colby, S. R. Calculation of the synergistic and antagonistic response of herbicide combinations. Weeds 1967, 15, 20-22). A t-test (alpha=0.05) between Colby predictions and observed combinations was used to test for significant differences indicating synergy or antagonism using replicate data.
# (§10) Expected=A+B+C−(AB+AC+BC)/100+(ABC)/10,000
# [3] = test system: Viola arvensis Murr. (field violet, VIOAR); assay: Field trial, post-emergence % visual weed control, VIOAR
# From the text: as §1, §2, §6, §7, §8, §9, §10
# [4] = test system: Echinochloa crus-galli (L.) P. Beauv. (barnyardgrass, ECHCG); assay: Field trial, post-emergence % visual weed control, ECHCG
# From the text: as §1, §2, §6, §7, §8, §9, §10
# [5] = test system: Papaver rhoeas L. (common poppy, PAPRH); assay: Field trial, post-emergence % visual weed control, PAPRH; details: 56DAA, 22.5 g ai/ha
# From the text: as §1, §2, §3, §4, §5
# [6] = test system: Lamium purpureum L. (purple deadnettle, LAMPU); assay: Field trial, post-emergence % visual weed control, LAMPU
# From the text: as §1, §2, §6, §7, §8, §9, §10
# [7] = test system: Consolida regalis S. F. Gray (branching larkspur, CNSRE); assay: Field trial, post-emergence % visual weed control, CNSRE
# From the text: as §1, §2, §6, §7, §8, §9, §10
# [8] = test system: Apera spica-venti (L.) Beauv. (windgrass, APESV); assay: Field trial, post-emergence % visual weed control, APESV
# From the text: as §1, §2, §6, §7, §8, §9, §10
# [9] = test system: Alopecurus myosuroides Huds. (blackgrass, ALOMY); assay: Field trial, post-emergence % visual weed control, ALOMY; details: 15DAA
# From the text: as §1, §2, §6, §7, §8
# (§11) Colby's equation was used to determine the herbicidal effects expected from the mixtures (Colby, S. R. Calculation of the synergistic and antagonistic response of herbicide combinations. Weeds 1967, 15, 20-22). […]
# [10] = test system: Avena macrocarpa Moench (wild red oat, AVEST); assay: Field trial, post-emergence % visual weed control, AVEST; details: 32DAA, 18.75 g ai/ha
# From the text: as §1, §2, §3, §4, §5
# [11] = test system: Lolium L. sp. (ryegrass, LOLSS); assay: Field trial, post-emergence % visual weed control, LOLSS; details: 14DAA, 18.75 g ai/ha
# From the text: as §1, §2, §3, §4, §5
# [12] = test system: Agropyron repens L. (quackgrass, AGRRE); assay: Field trial, post-emergence % visual weed control, AGRRE; details: 14DAA
# From the text: as §1, §2, §6, §7, §8, §11
# [13] = test system: Matricaria recutita L. (wild chamomile, MATCH); assay: Field trial, post-emergence % visual weed control, MATCH
# From the text: as §1, §2, §6, §7, §8, §9, §10
# Avena sp. (oats, AVESS) = assay: Field trial, post-emergence % visual weed control, AVESS; details: 76DAA, 18.75 g ai/ha
# From the text: as §1, §2, §3, §4, §5
# [14] = test system: Lolium rigidum (rigid ryegrass, LOLRI); assay: Field trial, post-emergence % visual weed control, LOLRI; details: 28DAA, 22.5 g ai/ha
# From the text: as §1, §2, §3, §4, §5
# [15] = test system: Matricaria inodora (scentless mayweed, MATIN); assay: Field trial, post-emergence % visual weed control, MATIN; details: 14DAA
# From the text: as §1, §2, §6, §7, §8, §9, §10
# [16] = test system: Solanum nigrum L. (black nightshade, SOLNI); assay: Field trial, post-emergence % visual weed control, SOLNI
# From the text: as §1, §2, §6, §7, §8, §9, §10
# [17] = test system: Stellaria media (L.) Vill. (common chickweed, STEME); assay: Field trial, post-emergence % visual weed control, STEME
# From the text: as §1, §2, §6, §7, §8, §9, §10
# [18] = test system: Galium aparine L. (catchweed bedstraw, GALAP); assay: Field trial, post-emergence % visual weed control, GALAP; details: 28DAA
# From the text: as §1, §2, §6, §7, §8, §11
smiles,measurement,setting,value
"COc1cc(OC)n2nc(NS(=O)(=O)c3c(C(F)(F)F)ccnc3OC)nc2n1 [Pyroxsulam, N-(5,7-dimethoxy[1,2,4]triazolo[1,5-a]pyrimidin-2-yl)-2-methoxy-4-(trifluoromethyl)-pyridine-3-sulfonamide]",Mean % Weed Control,[1]; 28DAA,72.5%
same,Mean % Weed Control,[1]; 55DAA,72.5%
same,Mean % Weed Control,"[2]; 28DAA, 12 g ai/ha",38.8%
same,Mean % Weed Control,"[2]; 77DAA, 12 g ai/ha",15.0%
same,Mean % Weed Control,"[2]; 84DAA, 12 g ai/ha",12.5%
same,Mean % Weed Control,"[3]; 14DAA, 12 g ai/ha",61.3%
same,Mean % Weed Control,"[3]; 56DAA, 12 g ai/ha",93.8%
same,Mean % Weed Control,"[4]; 14DAA, 18.75 g ai/ha",85.0%
same,Mean % Weed Control,"[4]; 29DAA, 18.75 g ai/ha",75.0%
same,Mean % Weed Control,"[4]; 56DAA, 18.75 g ai/ha",60.0%
same,Mean % Weed Control,[5],1.9%
same,Mean % Weed Control,"[6]; 15DAA, 9.6 g ai/ha",16.3%
same,Mean % Weed Control,"[6]; 15DAA, 12 g ai/ha",10.0%
same,Mean % Weed Control,"[6]; 32DAA, 9.6 g ai/ha",0.0%
same,Mean % Weed Control,"[7]; 31DAA, 12 g ai/ha",66.8%
same,Mean % Weed Control,"[7]; 53DAA, 12 g ai/ha",70.0%
same,Mean % Weed Control,"[7]; 84DAA, 12 g ai/ha",70%
same,Mean % Weed Control,"[8]; 14DAA, 12 g ai/ha",72.5%
same,Mean % Weed Control,"[8]; 28DAA, 12 g ai/ha",88.8%
same,Mean % Weed Control,"[8]; 56DAA, 12 g ai/ha",94.5%
same,Mean % Weed Control,[9]; 12 g ai/ha,27.5%
same,Mean % Weed Control,[10],97.8%
same,Mean % Weed Control,[11],90.0%
same,Mean % Weed Control,[12]; 12 g ai/ha,37.5%
same,Mean % Weed Control,"[13]; 15DAA, 9.6 g ai/ha",12.8%
same,Mean % Weed Control,"[13]; 61DAA, 9.6 g ai/ha",16.3% and 23.7%
same,Mean % Weed Control,"[13]; 61DAA, 12 g ai/ha",20.0% and 26.3%
same,Mean % Weed Control,"[13]; 78DAA, 9.6 g ai/ha",17.0%
same,Mean % Weed Control,"[13]; 78DAA, 12 g ai/ha",18.8%
same,Mean % Weed Control,"Avena sp. (oats, AVESS)",62.0%
same,Mean % Weed Control,[14],72.5%
same,Mean % Weed Control,[15]; 12 g ai/ha,20.0%
same,Mean % Weed Control,"[16]; 29DAA, 18.75 g ai/ha",50.0%
same,Mean % Weed Control,"[16]; 56DAA, 18.75 g ai/ha",30.0%
same,Mean % Weed Control,"[17]; 15DAA, 9.6 g ai/ha",0.0%
same,Mean % Weed Control,"[17]; 15DAA, 12 g ai/ha",0.0%
same,Mean % Weed Control,"[17]; 61DAA, 9.6 g ai/ha",5.0% and 11.1%
same,Mean % Weed Control,"[17]; 61DAA, 12 g ai/ha",3.8% and 9.7%
same,Mean % Weed Control,"[17]; 78DAA, 9.6 g ai/ha",16.3%
same,Mean % Weed Control,"[17]; 78DAA, 12 g ai/ha",13.8%
same,Mean % Weed Control,[18]; 12 g ai/ha,89.5%
"COC(=O)c1nc(-c2ccc(Cl)c(OC)c2F)cc(N)c1Cl [Halauxifen-Methyl, methyl 4-amino-3-chloro-6-(4-chloro-2-fluoro-3-methoxyphenyl)pyridine-2-carboxylate]",Mean % Weed Control,"[2]; 28DAA, 3 g ae/ha",75.0%
same,Mean % Weed Control,"[2]; 77DAA, 3 g ae/ha",82.5%
same,Mean % Weed Control,"[2]; 84DAA, 3 g ae/ha",1.3%
same,Mean % Weed Control,"[2]; 84DAA, 4 g ae/ha",27.5%
same,Mean % Weed Control,"[3]; 14DAA, 3 g ae/ha",0.0%
same,Mean % Weed Control,"[3]; 14DAA, 4 g ae/ha",0.0%
same,Mean % Weed Control,"[3]; 56DAA, 3 g ae/ha",0.0%
same,Mean % Weed Control,"[4]; 14DAA, 3 g ae/ha",0.0%
same,Mean % Weed Control,"[4]; 29DAA, 3 g ae/ha",0.0%
same,Mean % Weed Control,"[4]; 56DAA, 3 g ae/ha",0.0%
same,Mean % Weed Control,"[6]; 15DAA, 4.8 g ae/ha",72.5%
same,Mean % Weed Control,"[6]; 15DAA, 6 g ae/ha",55.0%
same,Mean % Weed Control,"[7]; 31DAA, 3 g ae/ha",68.3%
same,Mean % Weed Control,"[7]; 31DAA, 4 g ae/ha",70.8%
same,Mean % Weed Control,"[7]; 53DAA, 3 g ae/ha",70.0%
same,Mean % Weed Control,"[7]; 53DAA, 4 g ae/ha",72.0%
same,Mean % Weed Control,"[7]; 84DAA, 3 g ae/ha",70.0%
same,Mean % Weed Control,"[7]; 84DAA, 4 g ae/ha",72.5%
same,Mean % Weed Control,"[8]; 14DAA, 3 g ae/ha",0.0%
same,Mean % Weed Control,"[8]; 14DAA, 4 g ae/ha",0.0%
same,Mean % Weed Control,"[8]; 28DAA, 3 g ae/ha",0.0%
same,Mean % Weed Control,"[8]; 28DAA, 4 g ae/ha",0.0%
same,Mean % Weed Control,"[8]; 56DAA, 3 g ae/ha",0.0%
same,Mean % Weed Control,[9]; 4 g ae/ha,0.0%
same,Mean % Weed Control,[12]; 3 g ae/ha,0.0%
same,Mean % Weed Control,"[13]; 15DAA, 4.8 g ae/ha",0.0%
same,Mean % Weed Control,"[13]; 61DAA, 4.8 g ae/ha",0.0%
same,Mean % Weed Control,"[13]; 61DAA, 6 g ae/ha",1.3% and 3.2%
same,Mean % Weed Control,"[13]; 78DAA, 4.8 g ae/ha",6.3%
same,Mean % Weed Control,"[13]; 78DAA, 6 g ae/ha",6.3%
same,Mean % Weed Control,[15]; 3 g ae/ha,0.0%
same,Mean % Weed Control,[15]; 4 g ae/ha,0.0%
same,Mean % Weed Control,"[16]; 29DAA, 3 g ae/ha",10.0%
same,Mean % Weed Control,"[16]; 56DAA, 3 g ae/ha",0.0%
same,Mean % Weed Control,"[17]; 15DAA, 4.8 g ae/ha",0.0%
same,Mean % Weed Control,"[17]; 15DAA, 6 g ae/ha",0.0%
same,Mean % Weed Control,"[17]; 61DAA, 4.8 g ae/ha",0.0%
same,Mean % Weed Control,"[17]; 61DAA, 6 g ae/ha",1.3% and 3.2%
same,Mean % Weed Control,"[17]; 78DAA, 4.8 g ae/ha",6.3%
same,Mean % Weed Control,"[17]; 78DAA, 6 g ae/ha",8.8%
same,Mean % Weed Control,[18]; 3 g ae/ha,0.0%
